Assay results reported in ChEMBL document CHEMBL1201862, “PubChem BioAssay data set” (2004).
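Compound exposure: 48 hours, 5 concentrations, 96-well plates. GI50: concentration for 50% inhibition of growth.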 Calls of active or inactive are those of the source. No stated cut-off is given here; in the data, active = GI50 up to about 1.1 µM and inactive = higher.

Tests used:
Test in all cases: NCI anticancer screen, dose series, 48 h
[1] = test system: HOP-62
[2] = test system: DU-145
[3] = test system: MDA-N
[4] = test system: HCT-15
[5] = test system: SF-295
[6] = test system: NCI-H460
[7] = test system: A549
[8] = test system: NCI-H23
[9] = test system: HCT-116
[10] = test system: OVCAR-5
[11] = test system: SF-539
[12] = test system: EKVX
[13] = test system: SW-620
[14] = test system: SNB-19
[15] = test system: CAKI-1
[16] = test system: NCI-H226
[17] = test system: KM12
[18] = test system: SK-MEL-2
[19] = test system: RXF 393
[20] = test system: K562
[21] = test system: A498
[22] = test system: HOP-92
[23] = test system: TK-10
[24] = test system: SNB-75
[25] = test system: SK-MEL-28
[26] = test system: HT-29
[27] = test system: BT-549
[28] = test system: SK-MEL-5
[29] = test system: M14
[30] = test system: OVCAR-4
[31] = test system: Hs-578T
[32] = test system: Malme-3M
[33] = test system: OVCAR-3
[34] = test system: MDA-MB-435
[35] = test system: PC-3
[36] = test system: CCRF-CEM
[37] = test system: MCF7
[38] = test system: NCI-H522
[39] = test system: ACHN
[40] = test system: U-251
[41] = test system: IGROV-1
[42] = test system: OVCAR-8
[43] = test system: HL-60
[44] = test system: LOX IMVI
[45] = test system: 786-0
[46] = test system: HCC 2998
[47] = test system: SR
[48] = test system: SN12C
[49] = test system: UACC-62
[50] = test system: SK-OV-3
[51] = test system: T47D
[52] = test system: COLO 205
[53] = test system: MDA-MB-231
[54] = test system: NCI/ADR-RES
[55] = test system: UO-31
[56] = test system: RPMI-8226
[57] = test system: MOLT-4
[58] = test system: UACC-257
[59] = test system: SF-268

Compound: CC(NNC(=O)c1cc[n+]([BH2-]C#N)cc1)c1ccc(F)cc1 (configuration not stated)
- GI50 [1]: > 100 µM (inactive)
- GI50 [2]: > 100 µM (inactive)
- GI50 [3]: > 100 µM (inactive)
- GI50 [4]: > 100 µM
- GI50 [5]: > 100 µM (inactive)
- GI50 [6]: > 100 µM (inactive)
- GI50 [7]: > 100 µM (inactive)
- GI50 [8]: > 100 µM (inactive)
- GI50 [9]: > 100 µM (inactive)
- GI50 [10]: > 100 µM (inactive)
- GI50 [11]: > 100 µM (inactive)
- GI50 [12]: > 100 µM (inactive)
- GI50 [13]: > 100 µM (inactive)
- GI50 [14]: > 100 µM (inactive)
- GI50 [15]: > 100 µM (inactive)
- GI50 [16]: > 100 µM (inactive)
- GI50 [17]: > 100 µM (inactive)
- GI50 [18]: > 100 µM (inactive)
- GI50 [19]: > 100 µM (inactive)
- GI50 [20]: > 100 µM (inactive)
- GI50 [21]: > 100 µM (inactive)
- GI50 [22]: > 100 µM (inactive)
- GI50 [23]: > 100 µM (inactive)
- GI50 [24]: > 100 µM (inactive)
- GI50 [25]: > 100 µM (inactive)
- GI50 [26]: > 100 µM (inactive)
- GI50 [27]: > 100 µM (inactive)
- GI50 [28]: > 100 µM (inactive)
- GI50 [29]: > 100 µM (inactive)
- GI50 [30]: > 100 µM (inactive)
- GI50 [31]: > 100 µM (inactive)
- GI50 [32]: > 100 µM (inactive)
- GI50 [33]: > 100 µM (inactive)
- GI50 [34]: > 100 µM (inactive)
- GI50 [35]: > 100 µM (inactive)
- GI50 [36]: > 100 µM (inactive)
- GI50 [37]: > 100 µM (inactive)
- GI50 [38]: > 100 µM (inactive)
- GI50 [39]: > 100 µM (inactive)
- GI50 [40]: > 100 µM (inactive)
- GI50 [41]: > 100 µM (inactive)
- GI50 [42]: > 100 µM (inactive)
- GI50 [43]: > 100 µM (inactive)
- GI50 [44]: > 100 µM (inactive)
- GI50 [45]: > 100 µM (inactive)
- GI50 [46]: > 100 µM (inactive)
- GI50 [47]: > 100 µM (inactive)
- GI50 [48]: > 100 µM (inactive)
- GI50 [49]: > 100 µM (inactive)
- GI50 [50]: > 100 µM (inactive)
- GI50 [51]: > 100 µM (inactive)
- GI50 [52]: > 100 µM (inactive)
- GI50 [53]: > 100 µM (inactive)
- GI50 [54]: > 100 µM (inactive)
- GI50 [55]: > 100 µM (inactive)
- GI50 [56]: > 100 µM (inactive)
- GI50 [57]: > 100 µM (inactive)
- GI50 [58]: > 100 µM (inactive)
- GI50 [59]: > 100 µM (inactive)

Compound: COc1ccc2c(c1)-c1c(c3ccccc3n1CCN1CCCCC1)CC2
- GI50 [1]: 8.79 µM (inactive)
- GI50 [2]: 53.8 µM (inactive)
- GI50 [3]: 23.7 µM (inactive)
- GI50 [4]: 13.3 µM
- GI50 [5]: 5.52 µM (inactive)
- GI50 [6]: 16.6 µM (inactive)
- GI50 [7]: 10.6 µM (inactive)
- GI50 [8]: 18.3 µM (inactive)
- GI50 [9]: 13.1 µM (inactive)
- GI50 [10]: 11.9 µM (inactive)
- GI50 [11]: 6.37 µM (inactive)
- GI50 [12]: 26.8 µM (inactive)
- GI50 [13]: 26.1 µM (inactive)
- GI50 [14]: 23.7 µM (inactive)
- GI50 [15]: 21.6 µM (inactive)
- GI50 [16]: 17.2 µM (inactive)
- GI50 [17]: 6.07 µM (inactive)
- GI50 [18]: 5.73 µM (inactive)
- GI50 [19]: 1.57 µM (inactive)
- GI50 [20]: 11.9 µM (inactive)
- GI50 [21]: 34 µM (inactive)
- GI50 [22]: 21.8 µM (inactive)
- GI50 [23]: 20.3 µM (inactive)
- GI50 [24]: 14.8 µM (inactive)
- GI50 [25]: 30.2 µM (inactive)
- GI50 [26]: 10.3 µM (inactive)
- GI50 [27]: 23.1 µM (inactive)
- GI50 [28]: 14.6 µM (inactive)
- GI50 [29]: 5.47 µM (inactive)
- GI50 [30]: 25.6 µM (inactive)
- GI50 [31]: 9.82 µM (inactive)
- GI50 [32]: 23.4 µM (inactive)
- GI50 [33]: 6.08 µM (inactive)
- GI50 [34]: 24.9 µM (inactive)
- GI50 [35]: 5.75 µM (inactive)
- GI50 [36]: 19.5 µM (inactive)
- GI50 [37]: 7.24 µM (inactive)
- GI50 [38]: 14.6 µM (inactive)
- GI50 [39]: 33.7 µM (inactive)
- GI50 [40]: 19.5 µM (inactive)
- GI50 [41]: 13.8 µM (inactive)
- GI50 [42]: 4.43 µM (inactive)
- GI50 [43]: 2.63 µM (inactive)
- GI50 [44]: 16.3 µM (inactive)
- GI50 [45]: 16.9 µM (inactive)
- GI50 [46]: 6.87 µM (inactive)
- GI50 [47]: 6.64 µM (inactive)
- GI50 [48]: 22.4 µM (inactive)
- GI50 [49]: 16.3 µM (inactive)
- GI50 [50]: 24.2 µM (inactive)
- GI50 [51]: 18.9 µM (inactive)
- GI50 [52]: 13.2 µM (inactive)
- GI50 [53]: 14.3 µM (inactive)
- GI50 [54]: 6.25 µM (inactive)
- GI50 [55]: 12.6 µM (inactive)
- GI50 [56]: 11.3 µM (inactive)
- GI50 [57]: 15.9 µM (inactive)
- GI50 [58]: 22.4 µM (inactive)
- GI50 [59]: 17.4 µM (inactive)

Compound: CC1CCC2(C(=O)O)CCC3(C)C(=CCC4C5(C)CC(O)C(O)C(C)(CO)C5C(O)CC43C)C2C1C (configuration not stated)
- GI50 [1]: 45.4 µM (inactive)
- GI50 [2]: > 100 µM (inactive)
- GI50 [3]: 11.1 µM (inactive)
- GI50 [4]: > 100 µM
- GI50 [5]: 74.5 µM (inactive)
- GI50 [6]: > 100 µM (inactive)
- GI50 [7]: > 100 µM (inactive)
- GI50 [8]: 65.8 µM (inactive)
- GI50 [9]: 5.65 µM (inactive)
- GI50 [10]: > 100 µM (inactive)
- GI50 [11]: 39 µM (inactive)
- GI50 [12]: > 89.3 µM (inactive)
- GI50 [13]: > 100 µM (inactive)
- GI50 [14]: 22.7 µM (inactive)
- GI50 [15]: > 100 µM (inactive)
- GI50 [16]: > 79.6 µM (inactive)
- GI50 [17]: 43.3 µM (inactive)
- GI50 [18]: 19.4 µM (inactive)
- GI50 [19]: 31.3 µM (inactive)
- GI50 [20]: 41.1 µM (inactive)
- GI50 [21]: 24.3 µM (inactive)
- GI50 [22]: 20.8 µM (inactive)
- GI50 [23]: > 100 µM (inactive)
- GI50 [24]: 28.1 µM (inactive)
- GI50 [25]: 30.8 µM (inactive)
- GI50 [26]: > 88.5 µM (inactive)
- GI50 [27]: 31.7 µM (inactive)
- GI50 [28]: 41.8 µM (inactive)
- GI50 [29]: > 100 µM (inactive)
- GI50 [30]: > 100 µM (inactive)
- GI50 [31]: 19.4 µM (inactive)
- GI50 [32]: 47.5 µM (inactive)
- GI50 [33]: 24.1 µM (inactive)
- GI50 [34]: 45.6 µM (inactive)
- GI50 [35]: 83.6 µM (inactive)
- GI50 [36]: 19 µM (inactive)
- GI50 [37]: 41.5 µM (inactive)
- GI50 [38]: 17.5 µM (inactive)
- GI50 [39]: > 100 µM (inactive)
- GI50 [40]: 21.6 µM (inactive)
- GI50 [41]: 19.2 µM (inactive)
- GI50 [42]: 21.1 µM (inactive)
- GI50 [43]: 20.2 µM (inactive)
- GI50 [44]: 20.5 µM (inactive)
- GI50 [45]: 3.29 µM (inactive)
- GI50 [46]: 35.9 µM (inactive)
- GI50 [47]: 22.8 µM (inactive)
- GI50 [48]: 2.12 µM (inactive)
- GI50 [49]: 21.3 µM (inactive)
- GI50 [50]: > 100 µM (inactive)
- GI50 [51]: 37.4 µM (inactive)
- GI50 [52]: 50 µM (inactive)
- GI50 [53]: 39.9 µM (inactive)
- GI50 [54]: > 100 µM (inactive)
- GI50 [55]: > 100 µM (inactive)
- GI50 [56]: 33.4 µM (inactive)
- GI50 [57]: 58.2 µM (inactive)
- GI50 [58]: 98.4 µM (inactive)
- GI50 [59]: 28.5 µM (inactive)
